Values quoted from earlier work as cited in patent US12054485B2, “Substituted imidazoquinolines” (BIONTECH SE, priority 2017, dated 2024).

System: superficial basal cell carcinomas
Details: 5% cream (Aldara), topical; cited from earlier work

Compound: CC(C)Cn1cnc2c(N)nc3ccccc3c21 [Imiquimod, imiquimod]
- 5-year clearance of superficial basal cell carcinomas: approx. 80%
